Assay results reported in patent US20060069132A1, “Azolecarboxamide herbicides” (priority 2004, published 2006).

Legend:
ducksalad = test: Test D flooded paddy test; type: in vivo, Heteranthera limosa; settings: 21 days, scale 0 to 100
Source text: (§1) Three plastic pots (ca. 16-cm diameter) per rate were partially filled with sterilized Tama silt loam soil comprising a 35:50:15 ratio of sand, silt and clay and 2.6% organic matter. Separate plantings for each of the three pots were as follows. Seeds from the U.S. of ducksalad (Heteranthera limosa (Sw.) Willd.), smallflower umbrella sedge (Cyperus difformis L.) and purple redstem (Ammannia coccinea Rottb.), were planted into one 16-cm pot for each rate. Seeds from the U.S. of rice flatsedge (Cyperus iria L.), bearded sprangletop (Leptochloa fascicularis (Lam.) Gray), one stand of 9 or 10 water seeded rice seedlings (Oryza sativa L. cv. ‘Japonica—M202’), and one stand of 6 transplanted rice seedlings (Oryza sativa L. cv. ‘Japonica—M202’) were planted into one 16-cm pot for each rate. Seeds from the U.S. of barnyardgrass (Echinochloa crus-galli (L.) Beauv.), late watergrass (Echinochloa oryzicola Vasinger), early watergrass (Echinochloa oryzoides (Ard.) Fritsch) and junglerice (Echinochloa colona (L.) Link) were planted into one 16-cm pot for each rate. Plantings were sequential so that crop and weed species were at the 2.0 to 2.5-leaf stage at time of treatment.
(§2) Potted plants were grown in a greenhouse with day/night temperature settings of 29.5/26.7° C., and supplemental balanced lighting was provided to maintain a 16-hour photoperiod. Test pots were maintained in the greenhouse until test completion.
(§3) At time of treatment, test pots were flooded to 3 cm above the soil surface, treated by application of test compounds directly to the paddy water, and then maintained at that water depth for the duration of the test. Effects of treatments on rice and weeds were visually evaluated by comparison to untreated controls after 21 days. Plant response ratings are reported on a 0 to 100 scale; where 0 is no effect and 100 is complete control. A dash (-) response means no test result.

[1] = tested on: smallflower umbrella sedge; test: Test D flooded paddy test; type: in vivo, Cyperus difformis; settings: 21 days, scale 0 to 100
Source text: as §1, §2, §3

rice flatsedge = test: Test D flooded paddy test; type: in vivo, Cyperus iria; settings: 21 days, scale 0 to 100
Source text: as §1, §2, §3

bearded sprangletop = test: Test D flooded paddy test; type: in vivo, Leptochloa fascicularis; settings: 21 days, scale 0 to 100
Source text: as §1, §2, §3

[2] = tested on: transplanted rice seedlings; test: Test D flooded paddy test; type: in vivo, Oryza sativa; settings: 21 days, scale 0 to 100
Source text: as §1, §2, §3

[3] = tested on: water seeded rice seedlings; test: Test D flooded paddy test; type: in vivo, Oryza sativa; settings: 21 days, scale 0 to 100
Source text: as §1, §2, §3

barnyardgrass = test: Test D flooded paddy test; type: in vivo, Echinochloa crus-galli; settings: 21 days, scale 0 to 100
Source text: as §1, §2, §3

junglerice = test: Test D flooded paddy test; type: in vivo, Echinochloa colona; settings: 21 days, scale 0 to 100
Source text: as §1, §2, §3

[4] = tested on: corn (maize) cv. Pioneer 33G26; test: Test G safening on corn by naphthalic anhydride seed treatment, preemergence; type: in vivo, Zea mays
Source text: This test evaluated the safening of compounds of the invention on corn (maize; Zea mays L.) cv. ‘Pioneer 33G26’ by seed treatment with naphthalic anhydride (1,8-naphthalic anhydride). All corn seed had been first treated with fludioxonil and metaxyl applied at the manufacturer's recommended rate as per the Pioneer 33G26 label. Some of the corn seed were subsequently also treated with naphthalic anhydride as a 1% by weight seed dressing. The corn seed were planted in pots containing pasteurized Sassafras sandy loam soil, and then treatments were applied preemergence the same day. Treatments were applied by spraying the test compounds formulated in a non-phytotoxic solvent mixture, using a flat fan nozzle and a spray volume of 280 L/ha. The treatments were triply replicated and the results subsequently averaged. The pots were placed on a greenhouse bench using a complete randomized block design except for the first replicate, which was unrandomized. The plants were grown in the greenhouse and watered as needed with a dilute nutrient solution containing 200 ppm of N. Illumination was daylight supplemented by artificial sources to maintaining a photoperiod of 16 hours. The temperature was maintained at 28±2° C. during the day and 23±2° C. at night. The plant response was visually rated 25 days after treatment in comparison to untreated controls using a scale of 0 to 100, with 0 representing no effect and 100 representing complete plant death.

In the case of CCn1nc(C(C)(C)C)cc1C(=O)Nc1cc(C(=O)NCC2CC2)ccn1 [Compound 155], the “Plant response rating, Ducksalad” value (ducksalad; 32 g ai/ha) is reported as 0, the “Plant response rating, Ducksalad” value (ducksalad; 64 g ai/ha) is reported as 0 and the “Plant response rating, Ducksalad” value (ducksalad; 125 g ai/ha) is reported as 0. For the same compound, the “Plant response rating, Ducksalad” value (ducksalad; 250 g ai/ha) was 60, the “Plant response rating, Ducksalad” value (ducksalad; 500 g ai/ha) was 60 and the “Plant response rating, Sedge, Umbrella” value ([1]; 32 g ai/ha) was 30. For the same compound, the “Plant response rating, Sedge, Umbrella” value ([1]; 64 g ai/ha) was 65, the “Plant response rating, Sedge, Umbrella” value ([1]; 125 g ai/ha) was 75 and the “Plant response rating, Sedge, Umbrella” value ([1]; 250 g ai/ha) was 75. For the same compound, the “Plant response rating, Sedge, Umbrella” value ([1]; 500 g ai/ha) was 80, the “Plant response rating, Flatsedge, Rice” value (rice flatsedge; 32 g ai/ha) was 0 and the “Plant response rating, Flatsedge, Rice” value (rice flatsedge; 64 g ai/ha) was 0. For the same compound, the “Plant response rating, Flatsedge, Rice” value (rice flatsedge; 125 g ai/ha) was 30, the “Plant response rating, Flatsedge, Rice” value (rice flatsedge; 250 g ai/ha) was 60 and the “Plant response rating, Flatsedge, Rice” value (rice flatsedge; 500 g ai/ha) was 70. For the same compound, the “Plant response rating, Sprangletop, Bearded” value (bearded sprangletop; 32 g ai/ha) was 30, the “Plant response rating, Sprangletop, Bearded” value (bearded sprangletop; 64 g ai/ha) was 30 and the “Plant response rating, Sprangletop, Bearded” value (bearded sprangletop; 125 g ai/ha) was 30. For the same compound, the “Plant response rating, Sprangletop, Bearded” value (bearded sprangletop; 250 g ai/ha) was 40, the “Plant response rating, Sprangletop, Bearded” value (bearded sprangletop; 500 g ai/ha) was 75 and the “Plant response rating, Rice, Transplanted” value ([2]; 32 g ai/ha) was 0. For the same compound, the “Plant response rating, Rice, Transplanted” value ([2]; 64 g ai/ha) was 0, the “Plant response rating, Rice, Transplanted” value ([2]; 125 g ai/ha) was 20 and the “Plant response rating, Rice, Transplanted” value ([2]; 250 g ai/ha) was 30. The “Plant response rating, Rice, Transplanted” value ([2]; 500 g ai/ha) was 30, the “Plant response rating, Rice, Water Seeded” value ([3]; 32 g ai/ha) was 0 and the “Plant response rating, Rice, Water Seeded” value ([3]; 64 g ai/ha) was 0. For the same compound, the “Plant response rating, Rice, Water Seeded” value ([3]; 125 g ai/ha) was 25, the “Plant response rating, Rice, Water Seeded” value ([3]; 250 g ai/ha) was 35 and the “Plant response rating, Rice, Water Seeded” value ([3]; 500 g ai/ha) was 40. The “Plant response rating, Barnyardgrass” value (barnyardgrass; 32 g ai/ha) was 0, the “Plant response rating, Barnyardgrass” value (barnyardgrass; 64 g ai/ha) was 0 and the “Plant response rating, Barnyardgrass” value (barnyardgrass; 125 g ai/ha) was 20. For the same compound, the “Plant response rating, Barnyardgrass” value (barnyardgrass; 250 g ai/ha) was 35, the “Plant response rating, Barnyardgrass” value (barnyardgrass; 500 g ai/ha) was 80 and the “Plant response rating, Junglerice” value (junglerice; 32 g ai/ha) was 20. For the same compound, the “Plant response rating, Junglerice” value (junglerice; 64 g ai/ha) was 40, the “Plant response rating, Junglerice” value (junglerice; 125 g ai/ha) was 40 and the “Plant response rating, Junglerice” value (junglerice; 250 g ai/ha) was 40. For the same compound, the “Plant response rating, Junglerice” value (junglerice; 500 g ai/ha) was 65.

CCn1nc(C(C)(C)C)cc1C(=O)Nc1cc(C(=O)N(C)C)ccn1 [Compound 156, 2-[[[3-(1,1-dimethylethyl)-1-ethyl-1H-pyrazol-5-yl]carbonyl]amino]-N,N-dimethyl-4-pyridinecarboxamide] was tested, and the “Response of corn, With 1% naphthalic anhydride seed treatment” value ([4]; 62 g a.i./ha) was 0, the “Response of corn, Without naphthalic anhydride seed treatment” value ([4]; 62 g a.i./ha) was 2 and the “Response of corn, With 1% naphthalic anhydride seed treatment” value ([4]; 125 g a.i./ha) was 0. The “Response of corn, Without naphthalic anhydride seed treatment” value ([4]; 125 g a.i./ha) was 30, the “Response of corn, With 1% naphthalic anhydride seed treatment” value ([4]; 250 g a.i./ha) was 17 and the “Response of corn, Without naphthalic anhydride seed treatment” value ([4]; 250 g a.i./ha) was 65. For the same compound, the “Response of corn, With 1% naphthalic anhydride seed treatment” value ([4]; 500 g a.i./ha) was 17 and the “Response of corn, Without naphthalic anhydride seed treatment” value ([4]; 500 g a.i./ha) was 88.
